Measurements as given in PubChem BioAssay (NCI).
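Each compound was tested at five concentrations against cells in 96-well plates for 48 hours. GI50 = concentration required for 50% inhibition of growth. Definition used: TGI = concentration required for complete inhibition of growth.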

Experiments:
Assay in all cases: NCI tumour cell line growth inhibition, 48 h
[1] = tested on: HOP-92 NSCLC
[2] = tested on: DU-145 prostate
[3] = tested on: OVCAR-8 ovarian
[4] = tested on: IGROV1 ovarian
[5] = tested on: UACC-62 melanoma
[6] = tested on: RXF 393 renal
[7] = tested on: SF-295 CNS
[8] = tested on: OVCAR-4 ovarian
[9] = tested on: NCI-H226 lung
[10] = tested on: EKVX NSCLC
[11] = tested on: SR leukemia
[12] = tested on: NCI/ADR-RES ovarian
[13] = tested on: MDA-MB-435
[14] = tested on: HCT-15 colon
[15] = tested on: COLO 205 colon
[16] = tested on: MDA-MB-231 breast
[17] = tested on: NCI-H23 lung
[18] = tested on: M14 melanoma
[19] = tested on: HOP-62 NSCLC
[20] = tested on: OVCAR-3 ovarian
[21] = tested on: CAKI-1 renal
[22] = tested on: SK-OV-3 ovarian
[23] = tested on: MOLT-4 leukemia
[24] = tested on: OVCAR-5 ovarian
[25] = tested on: U251 CNS

For `Cc1c2c(nn1-c1ccc(S(=O)(=O)/N=C3\SCCC(=O)N3c3ccccc3)cc1)-c1ccccc1CC2`, the GI50 [1] was 81.2 µM, the TGI [1] was > 100 µM and the GI50 [2] was > 100 µM. The TGI [2] was > 100 µM, the GI50 [3] was 89.6 µM and the TGI [3] was > 100 µM. The GI50 [4] was > 100 µM, the TGI [4] was > 100 µM and the GI50 [5] was > 100 µM. The TGI [5] was > 100 µM, the GI50 [6] was 70.9 µM and the TGI [6] was > 100 µM. For the same molecule, the GI50 [7] was 75.7 µM, the TGI [7] was > 100 µM and the GI50 [8] was > 100 µM. For the same molecule, the TGI [8] was > 100 µM, the GI50 [9] was 84.4 µM and the TGI [9] was > 100 µM. The GI50 [10] was 94 µM, the TGI [10] was > 100 µM and the GI50 [11] was 65 µM. The TGI [11] was > 100 µM, the GI50 [12] was > 100 µM and the TGI [12] was > 100 µM. For the same molecule, the GI50 [13] was > 100 µM, the TGI [13] was > 100 µM and the GI50 [14] was > 100 µM. For the same molecule, the TGI [14] was > 100 µM, the GI50 [15] was > 100 µM and the TGI [15] was > 100 µM. For the same molecule, the GI50 [16] was 35.1 µM, the TGI [16] was > 100 µM and the GI50 [17] was > 100 µM. The TGI [17] was > 100 µM, the GI50 [18] was > 100 µM and the TGI [18] was > 100 µM. For the same molecule, the GI50 [19] was 46.4 µM, the TGI [19] was > 100 µM and the GI50 [20] was > 100 µM. For the same molecule, the TGI [20] was > 100 µM, the GI50 [21] was > 100 µM and the TGI [21] was > 100 µM. For the same molecule, the GI50 [22] was > 100 µM, the TGI [22] was > 100 µM and the GI50 [23] was > 100 µM. The TGI [23] was > 100 µM, the GI50 [24] was > 100 µM and the TGI [24] was > 100 µM. The GI50 [25] was > 100 µM and the TGI [25] was > 100 µM.
